Data as given in patent publication US7112418B2, “Ion channel” (priority 1995, dated 2006).
Like-named read-outs stand apart in the source and are kept apart here.

What was measured:
SNS sodium channel = SNS sodium channel (Rattus norvegicus, UniProt Q62968); type: cell-based
[1] = target: mutated SNS sodium channel (SNS mutant) (Rattus norvegicus, UniProt Q62968, S356F); type: cell-based; settings: read-out: IC50 (TTX sensitivity restored)
[2] = tested on: Rat brain iia sodium channel; settings: read-out: IC50 (TTX Sensitivity); cited from earlier work
[3] = target: muscle type 1 sodium channel (Rattus norvegicus, UniProt P15390); settings: read-out: IC50 (TTX Sensitivity); cited from earlier work
[4] = tested on: DRG sodium channel transcript; assay: Northern blot of adult DRG RNA from rats treated with capsaicin as neonates; type: in vivo, rat; settings: neonatal rats treated, total adult DRG RNA
Procedure: Random primed ^32P-labeled DNA Pst-Acc 1 fragment probes (50 ng, specific activity 2×10^9 c.p.m. per μg DNA) from interdomain region 1 (nucleotide position 1,478-1,892) of the SNS sodium channel nucleic acid sequence were used to probe total RNA extracted from tissues.
Total RNA was separated on 1.2% agarose-formaldehyde gels, and capillary blotted onto Hibond-N filters (Amersham). The amounts of RNA on the blot were roughly equivalent, as judged by ethidium bromide staining of ribosomal RNA and by hybridization with the ubiquitously expressed L-27 ribosomal protein transcripts. Filters were prehybridized in 50% formamide, 5×SSC containing 0.5% sodium dodecyl sulfate, 5× Denhardts solution, 100 μg/ml boiled sonicated salmon sperm DNA (average size 300 bp), 10 μg/ml poly-U and 10 μg/ml poly-C at 45° C. for 6 h. After 36 hours hybridization in the same conditions using 10^7 c.p.m. per ml hybridization probe, the filters were briefly washed in 2×SSC at room temperature, then twice with 2×SSC with 0.5% SDS at 68° C. for 15 min, followed by a 20 min wash in 0.5% SDS, 0.2×SSC at 68° C. The filters were autoradiographed overnight or for 4 days on autoradiography film (Kodak X-omat).

[5] = tested on: DRG sodium channel transcripts; assay: RT-PCR of DRG sodium channel transcripts in cultured DRG neurons treated with capsaicin; type: cell-based, rat; settings: overnight 10 μM
Procedure: (§1) cDNA was synthesized with Superscript reverse transcriptase using oligo dT(12-18) primers and purified on Qiagen 5 tips. Polymerase chain reaction (PCR) was used to amplify cDNA (35 cycles, 94° C., 1 min; 55° C., 1 min; and 72° C., 1 min), and products separated on agarose gels before staining with ethidium bromide. L-27 primers (Ninkina et al. (1983) Nucleic Acids Res. 21, 3175-3182) were added to the PCR reaction 5 cycles after the start of the reaction with the DRG sodium channel specific primers which comprised

[6] = tested on: DRG sodium channel transcripts; assay: RT-PCR of DRG sodium channel transcripts in DRG of neonatal animals treated with capsaicin; type: in vivo, rat; settings: 50 mg/kg on 2 consecutive days, DRG isolation 5 days later
Procedure: as §1

SNS sodium channel, sequence (Q62968 other isoform, or with tags, fused parts or gaps with the stated changes): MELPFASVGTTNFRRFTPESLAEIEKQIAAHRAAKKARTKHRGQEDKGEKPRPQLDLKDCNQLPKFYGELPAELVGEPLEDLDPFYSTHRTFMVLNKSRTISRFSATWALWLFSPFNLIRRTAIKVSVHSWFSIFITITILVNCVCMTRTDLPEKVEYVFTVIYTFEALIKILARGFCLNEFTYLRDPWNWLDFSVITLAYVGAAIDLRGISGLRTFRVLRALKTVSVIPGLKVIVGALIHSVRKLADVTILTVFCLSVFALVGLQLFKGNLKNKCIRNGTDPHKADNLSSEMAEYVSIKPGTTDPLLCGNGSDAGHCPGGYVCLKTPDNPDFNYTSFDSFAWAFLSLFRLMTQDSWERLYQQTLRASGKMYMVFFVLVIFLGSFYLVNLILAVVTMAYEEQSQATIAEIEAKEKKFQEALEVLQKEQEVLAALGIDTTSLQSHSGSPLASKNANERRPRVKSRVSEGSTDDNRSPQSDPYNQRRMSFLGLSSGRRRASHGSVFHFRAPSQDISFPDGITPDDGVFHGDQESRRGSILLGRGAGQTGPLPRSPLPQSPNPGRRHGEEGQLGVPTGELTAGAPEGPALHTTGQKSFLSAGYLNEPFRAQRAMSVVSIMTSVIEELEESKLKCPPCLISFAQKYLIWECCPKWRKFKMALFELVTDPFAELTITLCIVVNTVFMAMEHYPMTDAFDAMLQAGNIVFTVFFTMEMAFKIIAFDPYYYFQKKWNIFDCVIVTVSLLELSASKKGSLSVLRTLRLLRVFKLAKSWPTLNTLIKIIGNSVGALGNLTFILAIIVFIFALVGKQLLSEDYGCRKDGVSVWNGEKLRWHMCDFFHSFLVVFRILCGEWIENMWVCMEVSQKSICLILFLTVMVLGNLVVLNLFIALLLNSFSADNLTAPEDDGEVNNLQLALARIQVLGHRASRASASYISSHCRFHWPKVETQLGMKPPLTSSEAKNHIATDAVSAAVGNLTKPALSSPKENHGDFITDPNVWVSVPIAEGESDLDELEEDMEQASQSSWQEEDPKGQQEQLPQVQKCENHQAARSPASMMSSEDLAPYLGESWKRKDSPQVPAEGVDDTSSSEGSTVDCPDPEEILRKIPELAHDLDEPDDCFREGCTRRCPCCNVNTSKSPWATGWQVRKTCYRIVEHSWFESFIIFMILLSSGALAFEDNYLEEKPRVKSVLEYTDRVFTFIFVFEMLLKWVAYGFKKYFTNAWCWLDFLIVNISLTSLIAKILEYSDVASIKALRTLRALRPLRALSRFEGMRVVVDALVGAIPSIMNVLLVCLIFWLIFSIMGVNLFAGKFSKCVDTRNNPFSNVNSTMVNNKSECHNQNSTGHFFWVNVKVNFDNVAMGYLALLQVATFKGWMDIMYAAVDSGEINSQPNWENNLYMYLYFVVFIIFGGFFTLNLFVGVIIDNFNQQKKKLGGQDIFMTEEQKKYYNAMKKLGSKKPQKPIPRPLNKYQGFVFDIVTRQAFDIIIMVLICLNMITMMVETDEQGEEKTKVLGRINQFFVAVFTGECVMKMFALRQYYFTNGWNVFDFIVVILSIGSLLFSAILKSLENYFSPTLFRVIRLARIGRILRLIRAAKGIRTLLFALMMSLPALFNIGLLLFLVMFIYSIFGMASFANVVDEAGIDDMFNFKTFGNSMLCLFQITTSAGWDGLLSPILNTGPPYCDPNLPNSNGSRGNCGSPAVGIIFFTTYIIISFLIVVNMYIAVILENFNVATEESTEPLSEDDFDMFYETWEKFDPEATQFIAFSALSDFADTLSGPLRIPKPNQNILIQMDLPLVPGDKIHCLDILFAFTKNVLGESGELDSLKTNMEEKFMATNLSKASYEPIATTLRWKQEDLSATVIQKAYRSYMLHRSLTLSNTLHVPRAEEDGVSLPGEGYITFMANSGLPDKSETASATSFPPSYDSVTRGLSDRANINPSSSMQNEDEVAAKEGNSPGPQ
mutated SNS sodium channel (SNS mutant), sequence (Q62968 whole entry S356F, looked up): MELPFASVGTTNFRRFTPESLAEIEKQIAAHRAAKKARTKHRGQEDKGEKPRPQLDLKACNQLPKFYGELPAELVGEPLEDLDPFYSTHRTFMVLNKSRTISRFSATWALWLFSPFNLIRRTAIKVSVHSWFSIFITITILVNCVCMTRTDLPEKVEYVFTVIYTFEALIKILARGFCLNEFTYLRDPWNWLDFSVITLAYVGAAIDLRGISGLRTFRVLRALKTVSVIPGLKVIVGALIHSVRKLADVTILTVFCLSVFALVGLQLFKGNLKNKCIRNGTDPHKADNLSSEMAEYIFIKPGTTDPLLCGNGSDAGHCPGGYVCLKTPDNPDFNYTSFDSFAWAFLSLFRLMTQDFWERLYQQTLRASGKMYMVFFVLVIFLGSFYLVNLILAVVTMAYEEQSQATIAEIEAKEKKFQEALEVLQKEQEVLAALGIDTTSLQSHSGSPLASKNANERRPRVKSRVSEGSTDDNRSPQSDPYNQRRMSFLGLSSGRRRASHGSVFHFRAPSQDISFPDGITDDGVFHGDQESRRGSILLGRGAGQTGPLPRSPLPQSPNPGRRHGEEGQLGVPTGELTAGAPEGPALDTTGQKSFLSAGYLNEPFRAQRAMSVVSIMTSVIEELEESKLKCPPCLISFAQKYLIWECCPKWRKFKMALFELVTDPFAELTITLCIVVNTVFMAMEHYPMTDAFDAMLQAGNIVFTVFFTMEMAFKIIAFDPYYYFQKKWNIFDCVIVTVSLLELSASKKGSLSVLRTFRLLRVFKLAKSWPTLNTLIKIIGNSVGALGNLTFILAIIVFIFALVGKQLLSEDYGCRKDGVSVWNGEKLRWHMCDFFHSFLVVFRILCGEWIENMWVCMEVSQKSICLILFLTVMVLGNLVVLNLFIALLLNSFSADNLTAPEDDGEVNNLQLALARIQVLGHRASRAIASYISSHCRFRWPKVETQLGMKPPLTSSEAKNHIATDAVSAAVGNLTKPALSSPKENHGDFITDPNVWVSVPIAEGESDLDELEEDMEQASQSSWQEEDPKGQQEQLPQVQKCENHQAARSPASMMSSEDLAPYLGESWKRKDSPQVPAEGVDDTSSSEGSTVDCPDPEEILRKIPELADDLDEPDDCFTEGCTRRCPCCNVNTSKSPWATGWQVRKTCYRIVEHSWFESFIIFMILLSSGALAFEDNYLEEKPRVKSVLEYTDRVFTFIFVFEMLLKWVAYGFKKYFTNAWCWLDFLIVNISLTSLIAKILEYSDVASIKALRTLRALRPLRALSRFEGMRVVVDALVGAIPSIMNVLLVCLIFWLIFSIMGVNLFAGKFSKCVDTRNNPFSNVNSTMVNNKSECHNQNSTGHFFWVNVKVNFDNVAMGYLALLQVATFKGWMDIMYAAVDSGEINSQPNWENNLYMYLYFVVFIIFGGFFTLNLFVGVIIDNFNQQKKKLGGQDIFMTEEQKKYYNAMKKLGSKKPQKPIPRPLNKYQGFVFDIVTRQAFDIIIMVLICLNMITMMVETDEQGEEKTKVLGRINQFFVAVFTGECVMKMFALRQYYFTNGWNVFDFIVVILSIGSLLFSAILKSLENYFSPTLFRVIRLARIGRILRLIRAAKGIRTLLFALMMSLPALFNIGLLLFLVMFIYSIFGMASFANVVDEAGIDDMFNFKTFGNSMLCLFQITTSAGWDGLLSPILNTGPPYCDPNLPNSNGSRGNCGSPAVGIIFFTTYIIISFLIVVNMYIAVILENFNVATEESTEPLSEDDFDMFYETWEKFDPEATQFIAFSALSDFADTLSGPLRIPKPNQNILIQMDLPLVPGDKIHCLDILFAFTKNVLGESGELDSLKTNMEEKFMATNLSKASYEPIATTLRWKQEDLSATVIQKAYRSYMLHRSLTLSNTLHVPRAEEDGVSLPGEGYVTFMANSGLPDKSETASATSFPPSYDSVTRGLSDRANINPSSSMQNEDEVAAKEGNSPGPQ

NC1=N[C@H](O)[C@H]2[C@H]3O[C@]4(O)O[C@@H]([C@@H](O)[C@@]2(N1)[C@@H]4O)[C@]3(O)CO [TTX, tetrodotoxin]
block of the channel (SNS sodium channel): only partially blocked | effect on peak Na+ current (SNS sodium channel): no effect | effect on the channel (SNS sodium channel): unaffected | reduction of peak Na+ current (SNS sodium channel): 19.1±8.3% | reversibility of effect on peak Na+ current (SNS sodium channel): quickly reversible upon washout | IC50 (SNS sodium channel; read-out: IC50 (TTX Sensitivity)): 60 µM | IC50 (SNS sodium channel; read-out: IC50 (relative insensitivity to TTX)): > 1 µM | IC50 (SNS sodium channel; read-out: estimated half-maximal inhibitory concentration (IC50)): 59.6 ± 10.1 µM | IC50 [1]: 0.0025 µM | IC50 [2]: 0.018 µM | IC50 [3]: 0.04 µM

COc1cc(CNC(=O)CCCC/C=C/C(C)C)ccc1O [capsaicin]
DRG sodium channel northern blot signal [4]: substantially reduced | DRG sodium channel signal (RT-PCR) compared with controls [5]: significant diminution | DRG sodium channel signal (RT-PCR) compared with controls [6]: significant diminution

CCN(CC)CC(=O)Nc1c(C)cccc1C [lignocaine]
maximum block of peak current (SNS sodium channel): 41.7±5.4%

O=C1NC(=O)C(c2ccccc2)(c2ccccc2)N1 [phenytoin]
effect on peak current (SNS sodium channel; 100 μM, depolarizing pulses from −60 mV to +10 mV, 1 every min): no effect
